Results: patent US4271193A, “N1-Benzoyl-N2-phenyldiaminopropanols and pharmaceutical compositions thereof, and processes for their preparation” (Kali-Chemie Pharma GmbH, priority 1978, dated 1981)

Key:
[1] = Acute 7-day toxicity after single application per os; settings: mouse, in vivo, po, white NMRI-mice, not fed
Description: The acute 7-day toxicity is determined after a single application per os in white NMRI-mice which had not been fed. The calculation of the LD50 is carried out by probitananalysis by means of electronic data processing (see L. Cavalli-Sforza, Gustav Fischer-Verlag, Stuttgart (1964), Grundbegriffe der Biometrie, p. 153).

[2] = system: stomach epithelium cells; assay: Inhibition of acetylsalicylic acid-induced loss of stomach epithelium cells; format: in vivo; settings: Rattus norvegicus; narcotized male SIV50 rats; acetylsalicylic acid as irritant; 3 times 300 mg/kg test compound orally beforehand; read-out: % reduction of loss of epithelium cells in the stomach
Description: 2. Inhibition of loss of stomach epithelium cells
The test compound is orally administered to narcotized male rats of the breed SIV50 prior to the beginning of the test. […] In order to determine the induced total loss of cells in the rats stomach, acetylsalicylic acid is administered to animals without prior administration of a protective compound.
In order to prepare the animals for the determination, the trachea is laid free and a tube introduced therein. Subsequently, a laparotomy in the medial part, displacement of the stomach and introducing and fixing of a vein-catheter for recovering stomach juices are effected. By means of the introduced vein-catheter, stomach juice is recovered and then is centrifuged and microscopically analyzed.
The percent reduction of loss of cells induced by the acetylsalicylic acid after previous administration of 3 times 300 mg/kg of the test compound is determined.

Row | Structure (SMILES) | LD50 at 168 h [1] | inhibition in vivo at 300 mg/kg [2]
1 | COc1cc(C(=O)NCC(O)CN(C)c2ccc(F)cc2)cc(OC)c1OC (stereo not drawn) [A] | 5010 mg/kg | 53%
2 | COc1cc(C(=O)NCC(O)CN(C)c2ccc(Cl)cc2)cc(OC)c1OC (stereo not drawn) [B] | > 5000 mg/kg | 77%
3 | COc1cc(C(=O)NCC(O)CN(C)c2ccc(C(F)(F)F)cc2)cc(OC)c1OC (stereo not drawn) [C] | > 1390 mg/kg | 47.8%
4 | COc1cc(C(=O)NCC(O)CN(C)c2ccc(C)cc2)cc(OC)c1OC (stereo not drawn) [D] | > 3160 mg/kg | 47.8%
5 | CCN(CC(O)CNC(=O)c1cc(OC)c(OC)c(OC)c1)c1ccc(F)cc1 (stereo not drawn) [E] | > 1280 mg/kg | 43%
6 | COc1cc(C(=O)NCC(O)CNc2c(C)cc(C)cc2C)cc(OC)c1OC (stereo not drawn) [F] | > 1270 mg/kg | 28.4%
7 | CCOc1cc(C(=O)NCC(O)CN(C)c2ccc(F)cc2)cc(OCC)c1OCC (stereo not drawn) [G] | > 1370 mg/kg | 63%
8 | COc1ccc(C(=O)NCC(O)CN(C)c2ccc(F)cc2)c2c1OCCO2 (stereo not drawn) [H] | > 1230 mg/kg | 48.6%
9 | CCCCOc1c(OC)cc(C(=O)NCC(O)CN(C)c2ccc(F)cc2)cc1OC (stereo not drawn) [I] | > 1370 mg/kg | 27.2%
